Laboratory results: PMC4955774 (Bioorganic & medicinal chemistry, 2016)
Values after ≈ are worked out from the molar mass of the structure shown. Marks after values point to notes of the source that are not given here.

Legend:
C. albicans ATCC 10231 [1] = conditions: strain A; MIC-2 for azoles; previously reported; cited from earlier work
C. albicans ATCC 64124 = conditions: strain B; MIC-2 for azoles; previously reported; cited from earlier work
[2] = system: C. albicans ATCC MYA-2876(S); conditions: strain C; MIC-2 for azoles; previously reported; cited from earlier work
[3] = system: C. albicans ATCC 90819(R); conditions: strain D; MIC-2 for azoles; previously reported; cited from earlier work
[4] = system: C. albicans ATCC MYA-2310(S); conditions: strain E; MIC-2 for azoles; previously reported; cited from earlier work
[5] = system: C. albicans ATCC MYA-1237(R); conditions: strain F; MIC-2 for azoles; previously reported; cited from earlier work
[6] = system: C. albicans ATCC MYA-1003(R); conditions: strain G; MIC-2 for azoles; previously reported; cited from earlier work
[7] = system: Aspergillus nidulans ATCC 38163; conditions: strain L, filamentous fungus, previously reported; cited from earlier work
[8] = system: C. albicans ATCC 64124 (strain B); test: Antifungal time-kill studies; type: cell-based, Candida albicans
[9] = system: 13 fungal strains (yeast and filamentous fungi); test: In vitro antifungal MIC assay, summary over the whole panel; type: cell-based, Candida and Aspergillus strains; conditions: summary statement over the 13 strains
C. albicans ATCC 10231 [10] = test: In vitro antifungal MIC assay, strain A; type: cell-based; conditions: Candida albicans, ATCC10231, read-out: MIC (MIC-0)
[11] = system: C. albicans ATCC MYA-2876(S); test: In vitro antifungal MIC assay, strain C; type: cell-based; conditions: Candida albicans, read-out: MIC (MIC-0)
[12] = system: C. albicans ATCC MYA-2310(S); test: In vitro antifungal MIC assay, strain E; type: cell-based; conditions: Candida albicans, read-out: MIC (MIC-0)
[13] = system: C. albicans ATCC MYA-1237(R); test: In vitro antifungal MIC assay, strain F; type: cell-based; conditions: Candida albicans, read-out: MIC (MIC-0)
[14] = system: C. albicans ATCC MYA-1003(R); test: In vitro antifungal MIC assay, strain G; type: cell-based; conditions: Candida albicans, read-out: MIC (MIC-0)
[15] = In vitro cytotoxicity assay, A549; type: cell-based, mammalian; conditions: human
[16] = In vitro cytotoxicity assay, BEAS-2B; type: cell-based, mammalian; conditions: human
[17] = system: C. albicans ATCC 10231 (strain A); test: ROS assay with DCFH-DA dye; type: cell-based, Candida albicans; conditions: 1 h at 35 °C
[18] = 1× and 2× respective MIC values

In the case of `CC[C@@H]([C@H](C)O)n1ncn(-c2ccc(N3CCN(c4ccc(OC[C@@H]5CO[C@@](Cn6cncn6)(c6ccc(F)cc6F)C5)cc4)CC3)cc2)c1=O` [POS, posaconazole], the “MIC (MIC-2)” value (C. albicans ATCC 10231 [1]) is listed as 0.5 ^a µg/mL, the “MIC (MIC-2)” value (C. albicans ATCC 64124) is listed as >62.5 ^a µg/mL and the “MIC (MIC-2)” value [2] is listed as 7.8 ^a µg/mL. For the same compound, the “MIC (MIC-2)” value [3] was 31.2 ^a µg/mL, the “MIC (MIC-2)” value [4] was 31.2 ^a µg/mL and the “MIC (MIC-2)” value [5] was 15.6 ^a µg/mL. The “MIC (MIC-2)” value [6] was 15.6 ^a µg/mL and the “MIC (MIC-0)” value [7] was 0.195 ^a µg/mL.

In the case of `C[C@@H]1[C@H](O)[C@@H](C)/C=C/C=C/C=C/C=C/C=C/C=C/C=C/[C@H](O[C@@H]2O[C@H](C)[C@@H](O)[C@H](N)[C@@H]2O)C[C@@H]2O[C@](O)(C[C@@H](O)C[C@@H](O)[C@H](O)CC[C@@H](O)C[C@@H](O)CC(=O)O[C@H]1C)C[C@H](O)[C@H]2C(=O)O` [AmB, amphotericin B], the “Nature of activity in time-kill assay” value ([8]; 1× MIC) is reported as “fungicidal” and the “Time after which fungal cells were completely killed” value ([8]; 1× MIC) is reported as 9 h.

In the case of `CCCCCCCCCCCCOc1ccc(-c2nc3ccc(-c4nc5ccc(N6CCN(C)CC6)cc5[nH]4)cc3[nH]2)cc1` [Compound 13], the “MIC / antifungal activity over all tested fungal strains” value [9] is reported as “complete loss of antifungal activity”.

In the case of `C#CCOc1ccc(-c2nc3ccc(N4CCN(C)CC4)cc3[nH]2)cc1` [Compound 1], the “MIC / antifungal activity over all tested fungal strains” value [9] is reported as no less than 31.2 µg/mL.

Work on `CN1CCN(c2ccc3[nH]c(-c4ccc5[nH]c(-c6ccc(O)cc6)nc5c4)nc3c2)CC1` [Compound 2] yielded an MIC (C. albicans ATCC 10231 [10]) of 7.8 to 15.6 µg/mL (≈ 18.4 to 36.7 µM), an MIC [11] of 7.8 to 15.6 µg/mL (≈ 18.4 to 36.7 µM) and an MIC [12] of 3.9 to 7.8 µg/mL (≈ 9.19 to 18.4 µM). The MIC [13] was 3.9 to 7.8 µg/mL (≈ 9.19 to 18.4 µM), the MIC [14] was 7.8 to 15.6 µg/mL (≈ 18.4 to 36.7 µM) and the “Nature of activity in time-kill assay” value ([8]; 1× MIC) was “fungistatic”. For the same compound, the “Nature of activity in time-kill assay” value ([8]; 2× MIC) was “fungicidal”, the IC50 at 24 h [15] was no less than 31.2 µg/mL and the IC50 at 24 h [16] was no less than 31.2 µg/mL. For the same compound, the “Intracellular ROS production” value [17, 18] was “significant amount of ROS production”.

With `CCCCCN1CCN(c2ccc3nc(-c4ccc5nc(-c6ccc(OCC)cc6)[nH]c5c4)[nH]c3c2)CC1` [Compound 12] the “MIC / antifungal activity over all tested fungal strains” value [9] was “inactive”.

For `C#CCOc1ccc(-c2nc3ccc(-c4nc5ccc(-c6nc7ccc(N8CCN(C)CC8)cc7[nH]6)cc5[nH]4)cc3[nH]2)cc1` [Compound 18], the “MIC / antifungal activity over all tested fungal strains” value [9] was no less than 31.2 µg/mL.

In the case of `CCC(C)n1ncn(-c2ccc(N3CCN(c4ccc(OCC5COC(Cn6cncn6)(c6ccc(Cl)cc6Cl)O5)cc4)CC3)cc2)c1=O` (centres unmarked) [ITC, itraconazole], the “MIC (MIC-2)” value (C. albicans ATCC 10231 [1]) is given as 0.5 ^a µg/mL, the “MIC (MIC-2)” value (C. albicans ATCC 64124) is given as >62.5 ^a µg/mL and the “MIC (MIC-2)” value [2] is given as 7.8 ^a µg/mL. For the same compound, the “MIC (MIC-2)” value [3] was 31.2 ^a µg/mL, the “MIC (MIC-2)” value [4] was 31.2 ^a µg/mL and the “MIC (MIC-2)” value [5] was 31.2 ^a µg/mL. The “MIC (MIC-2)” value [6] was 31.2 ^a µg/mL and the “MIC (MIC-0)” value [7] was 0.195 ^a µg/mL.

In the case of `CCCN1CCN(c2ccc3nc(-c4ccc5nc(-c6ccc(OCC)cc6)[nH]c5c4)[nH]c3c2)CC1` [Compound 11], the “MIC / antifungal activity over all tested fungal strains” value [9] is reported as “inactive”.

With `CCCCCCCCCCCCN1CCN(c2ccc3nc(-c4ccc5nc(-c6ccc(O)cc6)[nH]c5c4)[nH]c3c2)CC1` [Compound 4] the “MIC / antifungal activity over all tested fungal strains” value [9] was “no activity” and the “Intracellular ROS production” value ([17]; 8 and 16 µg/mL) was “no ROS accumulation”.

In the case of `CCOc1ccc(-c2nc3cc(-c4nc5cc(N6CCN(C)CC6)ccc5[nH]4)ccc3[nH]2)cc1` [Compound 9], the “Nature of activity in time-kill assay” value ([8]; 1× MIC) is reported as “fungistatic”, the “Nature of activity in time-kill assay” value ([8]; 2× MIC) is reported as “fungicidal” and the “Intracellular ROS production” value [17, 18] is reported as “significant amount of ROS production”.

Compound `C#CCOc1ccc(-c2nc3ccc(-c4nc5ccc(N6CCN(C)CC6)cc5[nH]4)cc3[nH]2)cc1` [Compound 14] has an MIC (C. albicans ATCC 10231 [10]) of 7.8 to 31.2 µg/mL (≈ 16.9 to 67.5 µM).

For `OC(Cn1cncn1)(Cn1cncn1)c1ccc(F)cc1F` [FLC, fluconazole], the “MIC (MIC-2)” value (C. albicans ATCC 10231 [1]) is given as 62.5 ^a µg/mL, the “MIC (MIC-2)” value (C. albicans ATCC 64124) is given as >125 ^a µg/mL and the “MIC (MIC-2)” value [2] is given as 15.6 ^a µg/mL. For the same compound, the “MIC (MIC-2)” value [3] was >125 ^a µg/mL, the “MIC (MIC-2)” value [4] was >125 ^a µg/mL and the “MIC (MIC-2)” value [5] was 62.5 ^a µg/mL. The “MIC (MIC-2)” value [6] was 62.5 ^a µg/mL and the “MIC (MIC-0)” value [7] was 62.5 ^a µg/mL.
